Measured values taken from US10604524B2, “Pyrropyrimidine compounds as MNKs inhibitors” (LIFEARC, priority 2015, dated 2020).

Experiments:
Assay in all cases: Kinase selectivity screen
ROCK1 = ROCK1 (Homo sapiens, UniProt Q13464); settings: read-out: % Inhibition ROCK1
CDK6/CCND3 = CDK6/CCND3 (Homo sapiens, UniProt Q00534); settings: read-out: % Inhibition CDK6/CCND3
PRKCE = PRKCE (Homo sapiens, UniProt Q02156); settings: read-out: % Inhibition PRKCE
CSF1R = CSF1R (Homo sapiens, UniProt P07333); settings: read-out: % Inhibition CSF1R
STK17A = STK17A (Homo sapiens, UniProt Q9UEE5); settings: read-out: % Inhibition STK17A
KDR = KDR (Homo sapiens, UniProt P35968); settings: read-out: % Inhibition KDR
PAK4 = PAK4 (Homo sapiens, UniProt O96013); settings: read-out: % Inhibition PAK4
PAK7 = PAK7 (Homo sapiens, UniProt Q9P286); settings: read-out: % Inhibition PAK7
RPS6KB1 = RPS6KB1 (Homo sapiens, UniProt P23443); settings: read-out: % Inhibition RPS6KB1
AKT2 = AKT2 (Homo sapiens, UniProt P31751); settings: read-out: % Inhibition AKT2
JAK3 = JAK3 (Homo sapiens, UniProt P52333); settings: read-out: % Inhibition JAK3
PIK3CG = PIK3CG (Homo sapiens, UniProt P48736); settings: read-out: % Inhibition PIK3CG
CHEK1 = CHEK1 (Homo sapiens, UniProt O14757); settings: read-out: % Inhibition CHEK1
MAP3K9 = MAP3K9 (Homo sapiens, UniProt P80192); settings: read-out: % Inhibition MAP3K9
MAPKAPK2 = MAPKAPK2 (Homo sapiens, UniProt P49137); settings: read-out: % Inhibition MAPKAPK2
PRKG1 = PRKG1 (Homo sapiens, UniProt Q13976); settings: read-out: % Inhibition PRKG1
AURKB = AURKB (Homo sapiens, UniProt Q96GD4); settings: read-out: % Inhibition AURKB
RET = RET (Homo sapiens, UniProt P07949); settings: read-out: % Inhibition RET
DDR2 = DDR2 (Homo sapiens, UniProt Q16832); settings: read-out: % Inhibition DDR2
LCK = LCK (Homo sapiens, UniProt P06239); settings: read-out: % Inhibition LCK
PTK6 = PTK6 (Homo sapiens, UniProt Q13882); settings: read-out: % Inhibition PTK6
RPS6KA5 = RPS6KA5 (Homo sapiens, UniProt O75582); settings: read-out: % Inhibition RPS6KA5
ROS1 = ROS1 (Homo sapiens, UniProt P08922); settings: read-out: % Inhibition ROS1
FGFR1 = FGFR1 (Homo sapiens, UniProt P11362); settings: read-out: % Inhibition FGFR1
BTK = BTK (Homo sapiens, UniProt Q06187); settings: read-out: % Inhibition BTK
ACVR1B = ACVR1B (Homo sapiens, UniProt P36896); settings: read-out: % Inhibition ACVR1B
PDPK1 = PDPK1 (Homo sapiens, UniProt O15530); settings: read-out: % Inhibition PDPK1
EGFR = EGFR (Homo sapiens, UniProt P00533); settings: read-out: % Inhibition EGFR
PIK3CA = PIK3CA (Homo sapiens, UniProt P42336); settings: read-out: % Inhibition PIK3CA
JAK2 = JAK2 (Homo sapiens, UniProt O60674); settings: read-out: % Inhibition JAK2
CAMK2B = CAMK2B (Homo sapiens, UniProt Q13554); settings: read-out: % Inhibition CAMK2B
SRPK1 = SRPK1 (Homo sapiens, UniProt Q96SB4); settings: read-out: % Inhibition SRPK1
TYRO3 = TYRO3 (Homo sapiens, UniProt Q06418); settings: read-out: % Inhibition TYRO3
DMPK = DMPK (Homo sapiens, UniProt Q09013); settings: read-out: % Inhibition DMPK

Measured: inhibition at 1 µM

JAK3, sequence (P52333 whole entry, species assumed): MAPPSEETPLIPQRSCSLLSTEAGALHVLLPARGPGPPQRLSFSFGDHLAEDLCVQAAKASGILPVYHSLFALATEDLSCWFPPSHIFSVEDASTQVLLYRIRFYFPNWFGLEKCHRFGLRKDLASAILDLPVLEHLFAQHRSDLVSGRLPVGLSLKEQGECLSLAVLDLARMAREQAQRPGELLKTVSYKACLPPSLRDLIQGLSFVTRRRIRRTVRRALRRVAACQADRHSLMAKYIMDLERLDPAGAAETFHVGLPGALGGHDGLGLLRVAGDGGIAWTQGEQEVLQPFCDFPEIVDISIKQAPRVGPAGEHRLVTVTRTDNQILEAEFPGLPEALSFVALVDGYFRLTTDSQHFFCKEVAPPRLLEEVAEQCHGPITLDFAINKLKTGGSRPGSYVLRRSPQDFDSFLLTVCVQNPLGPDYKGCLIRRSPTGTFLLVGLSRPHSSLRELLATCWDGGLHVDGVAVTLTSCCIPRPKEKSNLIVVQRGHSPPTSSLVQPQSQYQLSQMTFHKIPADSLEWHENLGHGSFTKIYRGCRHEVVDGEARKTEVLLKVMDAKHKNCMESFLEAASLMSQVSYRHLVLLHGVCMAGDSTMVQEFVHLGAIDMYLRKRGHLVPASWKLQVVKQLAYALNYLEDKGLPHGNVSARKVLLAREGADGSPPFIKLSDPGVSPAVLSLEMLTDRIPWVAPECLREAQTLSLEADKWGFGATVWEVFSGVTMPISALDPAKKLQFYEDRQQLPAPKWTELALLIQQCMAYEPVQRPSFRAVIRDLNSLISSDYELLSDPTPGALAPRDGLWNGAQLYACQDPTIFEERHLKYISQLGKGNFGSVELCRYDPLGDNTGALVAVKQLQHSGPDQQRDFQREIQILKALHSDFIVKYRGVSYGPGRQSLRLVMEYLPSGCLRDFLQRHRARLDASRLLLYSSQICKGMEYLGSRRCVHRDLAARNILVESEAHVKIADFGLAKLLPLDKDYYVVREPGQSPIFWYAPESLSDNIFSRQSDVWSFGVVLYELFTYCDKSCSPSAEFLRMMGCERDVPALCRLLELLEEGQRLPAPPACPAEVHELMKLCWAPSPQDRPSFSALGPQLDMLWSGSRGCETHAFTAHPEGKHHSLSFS
ROCK1, sequence (Q13464 whole entry, species assumed): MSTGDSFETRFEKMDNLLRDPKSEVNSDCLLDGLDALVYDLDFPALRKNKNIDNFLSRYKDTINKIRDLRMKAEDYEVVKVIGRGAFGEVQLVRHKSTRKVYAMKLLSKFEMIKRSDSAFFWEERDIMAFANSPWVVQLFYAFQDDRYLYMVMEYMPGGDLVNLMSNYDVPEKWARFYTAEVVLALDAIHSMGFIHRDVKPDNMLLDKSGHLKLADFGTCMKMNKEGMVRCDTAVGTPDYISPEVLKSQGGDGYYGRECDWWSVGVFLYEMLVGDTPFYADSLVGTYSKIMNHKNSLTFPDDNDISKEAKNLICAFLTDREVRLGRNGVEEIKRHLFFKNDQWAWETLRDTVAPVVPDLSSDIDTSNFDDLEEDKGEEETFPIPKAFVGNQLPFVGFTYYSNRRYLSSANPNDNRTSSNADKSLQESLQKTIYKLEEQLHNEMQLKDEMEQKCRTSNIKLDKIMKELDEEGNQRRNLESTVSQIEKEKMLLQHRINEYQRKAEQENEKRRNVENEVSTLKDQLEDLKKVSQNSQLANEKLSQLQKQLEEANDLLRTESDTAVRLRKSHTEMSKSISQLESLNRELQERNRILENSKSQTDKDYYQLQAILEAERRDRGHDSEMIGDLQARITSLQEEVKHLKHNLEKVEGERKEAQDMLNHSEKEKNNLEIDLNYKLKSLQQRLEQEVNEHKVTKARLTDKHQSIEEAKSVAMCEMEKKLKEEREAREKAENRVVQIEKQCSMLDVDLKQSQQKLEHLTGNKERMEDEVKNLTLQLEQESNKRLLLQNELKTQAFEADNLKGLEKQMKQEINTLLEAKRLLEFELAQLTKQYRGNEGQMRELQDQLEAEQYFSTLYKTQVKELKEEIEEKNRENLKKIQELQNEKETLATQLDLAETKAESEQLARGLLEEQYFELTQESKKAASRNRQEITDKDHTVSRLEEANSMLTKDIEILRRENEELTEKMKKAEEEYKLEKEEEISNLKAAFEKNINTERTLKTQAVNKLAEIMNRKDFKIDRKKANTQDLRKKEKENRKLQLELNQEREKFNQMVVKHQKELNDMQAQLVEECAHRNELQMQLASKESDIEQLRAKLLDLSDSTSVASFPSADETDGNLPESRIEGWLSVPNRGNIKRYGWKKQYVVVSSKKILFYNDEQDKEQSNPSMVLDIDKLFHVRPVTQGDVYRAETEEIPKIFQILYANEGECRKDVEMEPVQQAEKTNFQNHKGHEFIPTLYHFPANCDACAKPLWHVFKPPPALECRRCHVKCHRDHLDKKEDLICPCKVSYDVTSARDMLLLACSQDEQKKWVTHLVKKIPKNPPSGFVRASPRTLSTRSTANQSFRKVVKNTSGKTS
BTK, sequence (Q06187 whole entry, species assumed): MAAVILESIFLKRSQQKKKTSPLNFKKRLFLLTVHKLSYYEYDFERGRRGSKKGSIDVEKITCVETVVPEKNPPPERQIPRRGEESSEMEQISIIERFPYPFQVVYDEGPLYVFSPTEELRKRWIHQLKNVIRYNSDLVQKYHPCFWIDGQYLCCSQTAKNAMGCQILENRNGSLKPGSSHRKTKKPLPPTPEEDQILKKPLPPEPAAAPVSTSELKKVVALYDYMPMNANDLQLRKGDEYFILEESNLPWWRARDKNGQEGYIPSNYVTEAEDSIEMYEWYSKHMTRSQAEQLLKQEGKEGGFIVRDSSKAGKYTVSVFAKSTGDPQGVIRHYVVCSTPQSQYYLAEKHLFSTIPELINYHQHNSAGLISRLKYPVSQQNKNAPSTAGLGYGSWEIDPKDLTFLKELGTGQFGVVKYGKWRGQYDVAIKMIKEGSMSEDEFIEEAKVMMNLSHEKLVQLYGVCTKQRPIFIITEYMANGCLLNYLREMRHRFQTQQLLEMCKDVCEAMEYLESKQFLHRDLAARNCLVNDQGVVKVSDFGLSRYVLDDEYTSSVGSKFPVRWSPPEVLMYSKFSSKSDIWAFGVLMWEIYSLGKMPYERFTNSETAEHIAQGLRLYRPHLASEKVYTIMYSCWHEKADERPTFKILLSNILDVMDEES
CDK6/CCND3, sequence (Q00534 whole entry, species assumed): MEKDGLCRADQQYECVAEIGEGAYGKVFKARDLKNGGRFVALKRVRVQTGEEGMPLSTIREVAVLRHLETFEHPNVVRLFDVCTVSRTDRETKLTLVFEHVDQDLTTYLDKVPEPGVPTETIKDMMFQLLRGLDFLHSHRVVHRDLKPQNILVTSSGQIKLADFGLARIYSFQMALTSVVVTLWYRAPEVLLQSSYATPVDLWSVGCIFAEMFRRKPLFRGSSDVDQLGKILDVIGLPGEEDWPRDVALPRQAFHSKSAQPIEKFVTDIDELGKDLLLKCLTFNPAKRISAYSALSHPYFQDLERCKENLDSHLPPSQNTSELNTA
CDK6/CCND3, sequence (P30281 whole entry partner, species assumed): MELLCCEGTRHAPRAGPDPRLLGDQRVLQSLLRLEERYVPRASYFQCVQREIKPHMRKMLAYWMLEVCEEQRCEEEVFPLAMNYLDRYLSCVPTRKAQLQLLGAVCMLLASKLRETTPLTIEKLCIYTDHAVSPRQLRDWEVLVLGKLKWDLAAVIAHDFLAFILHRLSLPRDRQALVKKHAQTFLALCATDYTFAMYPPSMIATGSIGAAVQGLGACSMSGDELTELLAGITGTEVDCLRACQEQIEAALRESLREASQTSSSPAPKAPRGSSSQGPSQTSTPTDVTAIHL
SRPK1, sequence (Q96SB4 whole entry, species assumed): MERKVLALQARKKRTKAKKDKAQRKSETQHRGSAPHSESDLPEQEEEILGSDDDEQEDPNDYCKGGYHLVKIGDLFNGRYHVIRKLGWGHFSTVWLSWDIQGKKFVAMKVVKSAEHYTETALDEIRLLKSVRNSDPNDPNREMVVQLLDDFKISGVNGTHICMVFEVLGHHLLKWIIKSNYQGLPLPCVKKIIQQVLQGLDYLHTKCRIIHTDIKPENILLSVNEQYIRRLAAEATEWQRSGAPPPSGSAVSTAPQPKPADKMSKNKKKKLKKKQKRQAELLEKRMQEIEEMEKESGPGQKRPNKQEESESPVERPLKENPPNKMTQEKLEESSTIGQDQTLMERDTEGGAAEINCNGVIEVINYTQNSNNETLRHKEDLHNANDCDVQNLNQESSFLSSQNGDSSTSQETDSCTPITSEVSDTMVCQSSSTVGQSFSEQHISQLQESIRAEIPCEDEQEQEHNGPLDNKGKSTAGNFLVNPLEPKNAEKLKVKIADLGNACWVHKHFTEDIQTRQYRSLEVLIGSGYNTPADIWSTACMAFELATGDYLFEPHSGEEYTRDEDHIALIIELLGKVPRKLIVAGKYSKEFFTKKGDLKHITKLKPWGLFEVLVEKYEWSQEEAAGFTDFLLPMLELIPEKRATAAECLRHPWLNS
CHEK1, sequence (O14757 whole entry, species assumed): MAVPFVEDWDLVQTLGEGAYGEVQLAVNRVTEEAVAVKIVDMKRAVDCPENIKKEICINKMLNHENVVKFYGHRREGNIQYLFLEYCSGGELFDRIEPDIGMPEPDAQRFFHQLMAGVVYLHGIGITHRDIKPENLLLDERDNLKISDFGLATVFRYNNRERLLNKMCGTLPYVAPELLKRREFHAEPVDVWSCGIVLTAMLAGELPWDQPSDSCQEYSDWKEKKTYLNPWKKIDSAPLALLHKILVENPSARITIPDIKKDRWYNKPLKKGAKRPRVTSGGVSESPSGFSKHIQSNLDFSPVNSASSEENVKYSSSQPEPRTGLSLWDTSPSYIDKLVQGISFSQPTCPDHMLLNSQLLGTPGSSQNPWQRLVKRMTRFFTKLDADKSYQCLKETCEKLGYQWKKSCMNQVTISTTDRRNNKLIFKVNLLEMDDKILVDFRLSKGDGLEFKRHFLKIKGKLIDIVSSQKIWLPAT

CC(C)Oc1cc(F)ccc1Nc1ncnc2cc(C(=O)NCCCN(C)C)n(C)c12 [Example 40, N-[3-(dimethylamino)propyl]-4-{[4-fluoro-2-(propan-2-yloxy)phenyl]amino}-5-methyl-5H-pyrrolo[3,2-d]pyrimidine-6-carboxamide]
8%: CSF1R
14%: AURKB | CAMK2B
2%: STK17A | DDR2
1%: PIK3CG | RET
5%: KDR | PIK3CA
0%: all other assays above
